Measurements as given in US20230149515A1, “INHIBITION OF SARS-COV-2 VIRAL ENTRY THROUGH ORAL ADMINISTRATION OF L[…] USES THEREOF” (priority 2020, published 2023).

Tested on: SARS-CoV-2
Format: cell-based
Details: positive control; Huh7 cells; FIG. 1 (50 nanomolar Remdesivir)

CCC(CC)COC(=O)[C@H](C)N[P@](=O)(OC[C@H]1O[C@@](C#N)(c2ccc3c(N)ncnn23)[C@H](O)[C@@H]1O)Oc1ccccc1 [Remdesivir, reference compound]
efficacy in SARS-CoV-2 infectivity assay: 100%
